Values of other authors in paper PMC4686915, “An engineered scorpion toxin analogue with improved Kv1.3 selectivity displays reduced conformational flexibility” (Scientific Reports, 2015).
Like-named read-outs stand apart in the source and are kept apart here.

What was measured:
Kv1.3 [1] = target: T1, Kv1.3 (Homo sapiens, UniProt P22001); parameters: endogenous in cells; settings: for selectivity class: Figure 1, based on ratio of Kd values for Kv1.2 and Kv1.3, ref not given; for block of Kv1.3, in words: toxins with tyrosine at the aromatic dyad position, ref 10 (ChTx), 13 (Css20), 32 (Tst26), 33 (noxiustoxin), 34 (hongotoxin-1), 30 (Pi1)
From the text: (§1) Anuroctoxin (AnTx, αKTx 6.12) is a peptide toxin of 35 amino acids with a molecular weight of 4082.8, stabilized by four disulphide bridges, which was isolated by our workgroup from the venom of the scorpion Anuroctonus phaiodactylus. […] Our aim was to improve the selectivity of the wild-type toxin for Kv1.3 by site-directed changes in the primary sequence of the peptide. || Figure 1 Sequence comparison of Kv1.2- and Kv1.3-selective toxins. The aligned primary sequences are shown for toxins for which the affinities for both Kv1.2 and Kv1.3 channels were determined. Toxins were classified as Kv1.2-selective, non-selective or Kv1.3-selective based on the ratio of the determined Kd values for the two channels. TEXT PRINTED IN THE PICTURE: maurotoxin: KdKv1.2/KdKv1.3: 0.004; KdKv1.2 (nM): 0.8; KdKv1.3 (nM): 180; selectivity: Kv1.2 | CoTX1: KdKv1.2/KdKv1.3: 0.005; KdKv1.2 (nM): 27; K ... || First we aimed at reproducing the effects of natural anuroctoxin with the wild-type toxin produced by solid-state chemical synthesis, denoted as sAnTx. The blocking effect of sAnTx was first tested on Kv1.3 channels expressed by activated human lymphocytes. Channels were activated by depolarizing pulses to +50 mV to maximize the open probability and pulse duration was limited to 15 ms to minimize inactivation. The use of such short pulses prevented cumulative inactivation and allowed us to record the current amplitude every 15 s giving better temporal resolution of the kinetics of block develo ... || (+ 3 further places)

Kv1.2 = target: Kv1.2
From the text: as §1, with “(+ 1” for “(+ 3”

hKv1.3 H399T = tested on: hKv1.3 H399T
From the text: (§2) We first targeted the essential dyad to improve selectivity. […] While the necessity of the dyad lysine was shown for other Kv channels as well[10], the requirement for the aromatic half of the dyad, especially the tyrosine, is not as straightforward for blocking Kv1.3.

hKv1.2 V381H = tested on: hKv1.2 V381H
From the text: as §2

Kv1.3 [2] = target: T1, Kv1.3
Kv1.2 (Homo sapiens) = Kv1.2 (Homo sapiens) (UniProt P16389)
[3] = Figure 1 sequence comparison, literature toxins, ref not given
[4] = Figure 1 sequence comparison, literature toxins, ref not given, read-out: KdKv1.3
[5] = Figure 1 sequence comparison, literature toxins, ref not given, read-out: KdKv1.2

T1 sequence (P22001 whole entry): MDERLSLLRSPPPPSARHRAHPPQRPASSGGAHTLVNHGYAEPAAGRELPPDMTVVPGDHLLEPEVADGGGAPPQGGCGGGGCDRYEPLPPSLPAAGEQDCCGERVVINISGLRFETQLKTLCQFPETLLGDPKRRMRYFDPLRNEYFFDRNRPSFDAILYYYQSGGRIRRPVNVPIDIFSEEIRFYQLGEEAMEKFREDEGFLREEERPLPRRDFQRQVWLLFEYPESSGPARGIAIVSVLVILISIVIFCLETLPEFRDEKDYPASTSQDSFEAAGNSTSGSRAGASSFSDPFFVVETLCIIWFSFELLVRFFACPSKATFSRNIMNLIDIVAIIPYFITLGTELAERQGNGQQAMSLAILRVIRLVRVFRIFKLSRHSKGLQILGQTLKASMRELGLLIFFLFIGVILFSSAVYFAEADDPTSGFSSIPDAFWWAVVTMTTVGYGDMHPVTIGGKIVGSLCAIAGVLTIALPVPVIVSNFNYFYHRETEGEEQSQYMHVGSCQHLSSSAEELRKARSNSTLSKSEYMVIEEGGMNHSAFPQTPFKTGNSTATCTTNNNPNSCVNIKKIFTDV
anuroctoxin, sequence (P0C166 whole entry): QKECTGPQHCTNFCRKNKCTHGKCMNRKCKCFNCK
Kv1.2 (Homo sapiens), sequence (P16389 whole entry): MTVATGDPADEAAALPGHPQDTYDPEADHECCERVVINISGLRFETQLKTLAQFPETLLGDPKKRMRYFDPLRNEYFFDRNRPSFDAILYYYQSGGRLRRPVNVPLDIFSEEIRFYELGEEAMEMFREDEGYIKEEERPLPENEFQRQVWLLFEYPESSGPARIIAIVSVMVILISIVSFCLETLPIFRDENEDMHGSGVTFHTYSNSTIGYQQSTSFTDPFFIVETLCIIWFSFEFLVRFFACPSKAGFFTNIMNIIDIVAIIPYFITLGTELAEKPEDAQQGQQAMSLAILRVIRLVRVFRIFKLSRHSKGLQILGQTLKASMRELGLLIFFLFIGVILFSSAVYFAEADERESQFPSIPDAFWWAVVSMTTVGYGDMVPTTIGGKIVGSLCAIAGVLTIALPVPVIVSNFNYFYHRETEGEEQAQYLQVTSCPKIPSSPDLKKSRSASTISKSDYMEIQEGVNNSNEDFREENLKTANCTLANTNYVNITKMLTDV

Row | Substance | selectivity class (Kv1.3 [1]) | KdKv1.2/KdKv1.3 (Kv1.3 [1]; [3]) | Kd (Kv1.3 [1]; [4]) [nM] | Kd (Kv1.2; [5]) [nM] | MTX sensitivity of Kv1.3 with H399T replacement (hKv1.3 H399T) | MTX binding affinity of hKv1.2 with V381H mutation (hKv1.2 V381H) | block of Kv1.3, in words (Kv1.3 [1]) | Kd (Kv1.3 [2]) [nM] | Kd (Kv1.2 (Homo sapiens)) [nM] | Kd (Kv1.3 [1]; listed as natural toxin, read-out: Kd Kv1.3 of natural anuroctoxin) [nM] | selectivity of the natural toxin for Kv1.3 over Kv1.2 (Kv1.3 [1]; natural toxin) [fold] | Kd (Kv1.2; listed as natural toxin, read-out: Kd Kv1.2 of natural anuroctoxin) [nM]
1 | maurotoxin | Kv1.2 (Kv1.2-selective) | 0.004 | 180 | 0.8 | made Kv1.3 sensitive to MTX | drastically reduced MTX binding affinity | – | – | – | – | – | –
2 | Hongotoxin-1 | non-selective (non-selective) | 1.9 | 0.09 | 0.17 | – | – | nanomolar range | – | – | – | – | –
3 | anuroctoxin (from UniProt P0C166) | – | – | – | – | – | – | – | 0.73 | 6.14 | – | – | –
4 | charybdotoxin [ChTx] | non-selective (non-selective) | 5.4 | 2.6 | 14 | – | – | nanomolar range | – | – | – | – | –
5 | kaliotoxin [KTX] | Kv1.3 (Kv1.3-selective) | > 1538 | 0.65 | > 1000 | – | – | – | – | – | – | – | –
6 | Noxiustoxin (TIINVKCTSPKQCSKPCKELYGSSAGAKCMNGKCKCYNN; UniProt P08815 1-39, looked up) [scorpion toxin] | non-selective (non-selective) | 2 | 1 | 2 | – | – | nanomolar range | – | – | – | – | –
7 | anuroctoxin [AnTx] | non-selective (non-selective) | 9 | – | 6 | – | – | – | – | – | 0.7 | 9 | 6.1
